Assay results as given in patent publication US6998259B1, “Enzymatic treatment of whey proteins for the production of antihypertensive peptides and the resulting products” (Davisco Foods International, priority 1999, dated 2006).
Like-named read-outs stand apart in the source and are kept apart here. No end group written: not given here.

What was measured:
[1] = biological target: T1, Angiotensin Converting Enzyme (from rabbit lung) (Oryctolagus cuniculus, UniProt P12822); experiment: ACE-inhibitory activity, in vitro spectrophotometric assay (Cushman and Cheung, HHL substrate); type: biochemical
T1 construct: Angiotensin Converting Enzyme (from rabbit lung); purchased Sigma Chemical Co. (St. Louis, USA); host or cells: rabbit lung tissue
T1 sequence (P12822 34-1310): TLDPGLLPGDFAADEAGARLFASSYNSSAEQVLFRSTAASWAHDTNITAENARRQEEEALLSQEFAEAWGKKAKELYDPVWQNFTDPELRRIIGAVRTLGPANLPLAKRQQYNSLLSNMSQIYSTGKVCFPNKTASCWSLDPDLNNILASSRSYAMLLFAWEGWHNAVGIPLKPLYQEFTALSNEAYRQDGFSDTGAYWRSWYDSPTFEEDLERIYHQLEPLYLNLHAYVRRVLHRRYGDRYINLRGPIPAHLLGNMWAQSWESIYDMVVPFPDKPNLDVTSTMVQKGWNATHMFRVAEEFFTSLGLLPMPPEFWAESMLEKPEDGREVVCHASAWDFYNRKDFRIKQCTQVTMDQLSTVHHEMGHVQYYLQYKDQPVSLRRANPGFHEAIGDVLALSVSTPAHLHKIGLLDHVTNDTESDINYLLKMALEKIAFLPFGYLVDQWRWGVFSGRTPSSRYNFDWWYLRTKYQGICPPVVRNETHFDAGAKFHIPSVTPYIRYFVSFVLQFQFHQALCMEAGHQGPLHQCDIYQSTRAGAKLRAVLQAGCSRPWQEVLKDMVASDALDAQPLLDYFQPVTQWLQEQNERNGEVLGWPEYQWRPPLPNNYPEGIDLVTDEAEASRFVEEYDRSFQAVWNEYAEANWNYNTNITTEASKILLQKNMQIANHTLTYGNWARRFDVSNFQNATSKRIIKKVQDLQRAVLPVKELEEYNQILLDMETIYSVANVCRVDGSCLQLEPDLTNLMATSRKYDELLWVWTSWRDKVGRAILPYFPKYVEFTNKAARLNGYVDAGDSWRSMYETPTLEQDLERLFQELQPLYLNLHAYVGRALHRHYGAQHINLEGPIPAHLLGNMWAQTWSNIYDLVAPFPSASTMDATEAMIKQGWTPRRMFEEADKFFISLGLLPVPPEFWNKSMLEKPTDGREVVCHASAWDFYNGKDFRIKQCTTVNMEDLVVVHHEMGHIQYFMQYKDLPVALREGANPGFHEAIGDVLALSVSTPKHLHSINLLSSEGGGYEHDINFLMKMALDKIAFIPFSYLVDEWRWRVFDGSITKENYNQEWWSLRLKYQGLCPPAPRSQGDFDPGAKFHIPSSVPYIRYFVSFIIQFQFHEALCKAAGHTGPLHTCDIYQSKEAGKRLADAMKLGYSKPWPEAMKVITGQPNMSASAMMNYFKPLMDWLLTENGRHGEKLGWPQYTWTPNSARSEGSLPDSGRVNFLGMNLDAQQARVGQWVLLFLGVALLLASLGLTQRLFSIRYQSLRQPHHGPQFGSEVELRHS
Excerpt: Whey protein hydrolysate WPH 917 (84.5% protein w/w) was obtained from New Zealand Milk Product Inc. (Santa Rosa, USA). Whey protein hydrolysate LE80GF (80.0% w/w) was obtained from DMV International (New-York, USA). Whey protein isolate (BiPRO™) and β-lactoglobulin-rich product were obtained from Davisco Foods International (Le Sueur, Minn., USA). Purified peptidic sequence Ala-Leu-Pro-Met-His-Ile-Arg modelling the peptide f-142–148 from β-1g was chemically-synthetized by the Service de séquence de peptides de l'Est du Québec (Ste-Foy, Qc, Canada). HEPES Sodium salt, Hippuryl-L-Histidyl-L-Leucine, and Angiotensin Converting Enzyme (from rabbit lung) were purchased from Sigma Chemical Co. (St. Louis, USA). All other products used were analytical grade.
The ACE-inhibitory activity was measured in vitro by a spectrophotometric assay according to the method of Cushman and Cheung. (Cushman, D. N., Cheung, H. S. 1971 Spectrophotometric assay and properties of the angiotensin converting enzyme of rabbit lung. Biochemical Pharmacology, 20: 1637–1648.) According to this method, hippuric acid is liberated from hippuryl-L-histidyl-L-leucine (HHL) by the enzymatic reaction of ACE. After extraction by ethyl acetate and removal of ethyl acetate by heat evaporation, hippuric acid is dissolved in deionized water.
Inhibitory activity was calculated according to the following equation: Inhibitory activity (%)=[(Acontrol−Asample)/(Acontrol−Ablank)]×[…] 1 where A represents absorbance. A plot of the inhibitory activity (%) versus log10 of sample concentration (mg powder ml^−1) was generated using 6 different concentrations of samples for BIPRO™, AS-601 (BiPRO™β-1g), commercial hydrolysates (WPH 917, LE80GF) and of synthetic peptide (f142–148) from β-1g. Each concentration was tested in triplicate and the mean value was plotted in the curves. The IC50 value (expressed in terms of mg powder ml^−1, defined as the concentration of inhibitor which gives 50% inhibition of ACE activity, was calculated using the linear regression equations of the curves.

ACE = ACE (Homo sapiens, UniProt P12821); conditions: cited from earlier work
Chain of ACE (P12821 30-1306, species assumed): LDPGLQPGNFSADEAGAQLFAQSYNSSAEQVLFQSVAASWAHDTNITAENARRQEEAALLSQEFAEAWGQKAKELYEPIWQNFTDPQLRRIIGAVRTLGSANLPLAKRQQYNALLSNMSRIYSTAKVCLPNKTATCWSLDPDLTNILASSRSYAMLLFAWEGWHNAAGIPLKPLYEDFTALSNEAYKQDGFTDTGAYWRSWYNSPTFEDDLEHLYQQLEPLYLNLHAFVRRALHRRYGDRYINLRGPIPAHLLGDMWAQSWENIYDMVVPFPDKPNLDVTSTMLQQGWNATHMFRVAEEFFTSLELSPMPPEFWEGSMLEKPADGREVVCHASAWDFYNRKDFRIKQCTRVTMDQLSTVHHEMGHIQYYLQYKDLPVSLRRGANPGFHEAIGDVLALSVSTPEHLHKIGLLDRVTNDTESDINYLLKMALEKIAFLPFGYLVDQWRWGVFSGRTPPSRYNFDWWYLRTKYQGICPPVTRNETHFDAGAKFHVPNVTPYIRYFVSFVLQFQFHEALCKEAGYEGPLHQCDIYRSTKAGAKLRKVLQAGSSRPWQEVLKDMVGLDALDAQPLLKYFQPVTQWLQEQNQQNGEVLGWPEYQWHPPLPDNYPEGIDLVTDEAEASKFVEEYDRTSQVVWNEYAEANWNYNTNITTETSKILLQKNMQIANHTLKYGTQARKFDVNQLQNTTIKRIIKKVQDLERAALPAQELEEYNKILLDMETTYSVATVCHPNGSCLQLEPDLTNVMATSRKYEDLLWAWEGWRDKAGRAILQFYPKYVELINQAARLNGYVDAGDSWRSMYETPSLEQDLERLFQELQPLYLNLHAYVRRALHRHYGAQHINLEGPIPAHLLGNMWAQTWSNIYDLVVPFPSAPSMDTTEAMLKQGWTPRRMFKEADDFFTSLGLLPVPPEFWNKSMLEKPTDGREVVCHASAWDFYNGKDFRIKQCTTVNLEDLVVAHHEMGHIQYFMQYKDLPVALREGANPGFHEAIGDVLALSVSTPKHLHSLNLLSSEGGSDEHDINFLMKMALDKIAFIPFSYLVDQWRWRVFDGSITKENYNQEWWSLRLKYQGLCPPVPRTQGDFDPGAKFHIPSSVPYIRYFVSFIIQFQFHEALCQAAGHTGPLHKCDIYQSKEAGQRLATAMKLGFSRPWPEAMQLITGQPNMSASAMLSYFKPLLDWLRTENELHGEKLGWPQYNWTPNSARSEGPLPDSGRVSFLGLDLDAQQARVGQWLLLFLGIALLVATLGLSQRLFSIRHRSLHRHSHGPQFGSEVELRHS

[2] = system: spontaneously hypertensive rats; conditions: among nine identified peptide sequences; cited from earlier work
[3] = inhibitory activity (%) versus sample concentration (mg powder ml^−1)

For “ALPMHIR [β-1 g f142–148, Ala-Leu-Pro-Met-His-Ile-Arg]”, the “Slope m of linear regression (y=m lnX+b) of the ACE-inhibitory activity curve” value [1, 3] was 10.35, the “Y-intercept b of linear regression (y=m lnX+b) of the ACE-inhibitory activity curve” value [1, 3] was 84.4 and the IC50 ([1]; rabbit lung ACE, HHL substrate, 37° C. for 20 min, 6 concentrations in triplicate, calculated from linear regression, read-out: IC50 (concentration of inhibitor which gives 50% inhibition of ACE activity) (converted)) was 47.8 µM. For the same substance, the IC50 (ACE; Mullally et al. 1997, read-out: IC50 (ACE inhibition)) was 42.6 µM.

In the case of “peptide f23–34 from xsl casein: peptide f23–34 from casein (bovine, variant B), from tryptic casein hydrolysate (FFVAPFPEVFGK; Alpha-S1-casein; UniProt P02662 38-49, looked up, fragment)”, the IC50 (ACE; Maruyama and Suzuki, tryptic casein hydrolysate peptide, read-out: IC50 (concentration needed to inhibit 50% ACE activity)) is listed as 77 µM.

For “β-lactoglobulin (f78–80): peptide fragment 78–80 of β-lactoglobulin from proteinase K digestion of cheese whey protein (Abubakar et al.) (IPA; UniProt P02754 94-96, looked up, fragment)”, the antihypertensive activity [2] is given as “strongest antihypertensive activity”.
